The values that follow are results of earlier work, collected in patent US20220386610A1, “FUNGICIDAL COMBINATIONS” (UPL Corporation Limited, priority 2019, published 2022).

The data set concerns soybean rust. The conditions noted are these: for control: 2012/13 season.

Structures are written as SMILES.

Regarding `CC(C1CC1)C(O)(Cn1cncn1)c1ccc(Cl)cc1` (stereo not shown) [cyproconazole], the control is 38%.
As for `CC(C)(C)C(O)(CCc1ccc(Cl)cc1)Cn1cncn1` (stereo not shown) [tebuconazole], the control is given as 42%. Moreover, the “efficiency (reduced level)” value (after ten seasons) is listed as 24%. Also, the “efficiency (starting level)” value (before the reduction over ten seasons) is given as 90%.
